From US12275731B2, “Azaindole inhibitors of wild-type and mutant forms of LRRK2” (DANA-FARBER CANCER INSTITUTE, INC., priority 2018, dated 2025)

Legend:
Experiment in all cases: KinomeScan profiling
Format in all cases: binding
SIK = target: T1, SIK (Homo sapiens, UniProt P57059); conditions: read-out: % control
T1 construct: purchased KinomeScan® (panel service)
Method in brief: (§1)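 Normalised RLU (% control; DMSO 100%, positive control 0%) was measured for compounds dosed at 1 μM over 468 kinases, active cut-off <35%.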

YANK3 = YANK3 (Homo sapiens, UniProt Q86UX6); conditions: YANK3, 1 μM; read-out: % control
Chain of YANK3 (Q86UX6 whole entry): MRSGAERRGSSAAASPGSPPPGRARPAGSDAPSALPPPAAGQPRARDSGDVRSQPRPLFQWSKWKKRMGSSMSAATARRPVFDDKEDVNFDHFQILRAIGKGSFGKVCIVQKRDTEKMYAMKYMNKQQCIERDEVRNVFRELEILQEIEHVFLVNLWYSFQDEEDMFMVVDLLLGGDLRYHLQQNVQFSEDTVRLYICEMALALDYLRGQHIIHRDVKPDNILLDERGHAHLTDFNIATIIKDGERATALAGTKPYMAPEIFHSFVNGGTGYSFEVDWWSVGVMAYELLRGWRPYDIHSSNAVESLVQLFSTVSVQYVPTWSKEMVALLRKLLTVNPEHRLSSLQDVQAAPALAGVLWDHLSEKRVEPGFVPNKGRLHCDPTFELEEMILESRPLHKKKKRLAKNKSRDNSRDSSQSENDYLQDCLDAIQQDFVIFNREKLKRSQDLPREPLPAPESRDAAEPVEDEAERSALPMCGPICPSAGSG
Method in brief: as §1

BMX = target: T2, BMX (Homo sapiens, UniProt P51813); conditions: read-out: % control
T2 construct: purchased KinomeScan®
T2 sequence (P51813 1-675): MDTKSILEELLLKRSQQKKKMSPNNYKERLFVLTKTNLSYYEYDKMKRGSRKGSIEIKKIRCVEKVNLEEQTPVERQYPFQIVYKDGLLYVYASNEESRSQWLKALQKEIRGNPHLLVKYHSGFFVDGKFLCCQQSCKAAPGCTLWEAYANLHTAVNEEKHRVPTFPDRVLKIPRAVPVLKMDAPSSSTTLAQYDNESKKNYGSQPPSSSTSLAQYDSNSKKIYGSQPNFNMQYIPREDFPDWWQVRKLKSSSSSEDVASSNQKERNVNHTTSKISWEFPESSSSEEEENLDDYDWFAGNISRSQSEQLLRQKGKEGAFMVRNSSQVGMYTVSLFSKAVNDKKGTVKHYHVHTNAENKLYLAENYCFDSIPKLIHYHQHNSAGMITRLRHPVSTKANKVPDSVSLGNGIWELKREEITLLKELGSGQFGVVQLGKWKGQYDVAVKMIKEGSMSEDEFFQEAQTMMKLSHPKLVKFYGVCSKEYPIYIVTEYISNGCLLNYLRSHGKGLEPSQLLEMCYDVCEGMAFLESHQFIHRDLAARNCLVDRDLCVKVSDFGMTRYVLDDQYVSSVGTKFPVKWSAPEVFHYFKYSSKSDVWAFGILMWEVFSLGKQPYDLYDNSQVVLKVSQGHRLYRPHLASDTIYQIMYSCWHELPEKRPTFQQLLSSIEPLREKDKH
Method in brief: as §1

WNK4 = WNK4 (Homo sapiens, UniProt Q96J92); conditions: WNK4, 1 μM; read-out: % control
Chain of WNK4 (Q96J92 whole entry): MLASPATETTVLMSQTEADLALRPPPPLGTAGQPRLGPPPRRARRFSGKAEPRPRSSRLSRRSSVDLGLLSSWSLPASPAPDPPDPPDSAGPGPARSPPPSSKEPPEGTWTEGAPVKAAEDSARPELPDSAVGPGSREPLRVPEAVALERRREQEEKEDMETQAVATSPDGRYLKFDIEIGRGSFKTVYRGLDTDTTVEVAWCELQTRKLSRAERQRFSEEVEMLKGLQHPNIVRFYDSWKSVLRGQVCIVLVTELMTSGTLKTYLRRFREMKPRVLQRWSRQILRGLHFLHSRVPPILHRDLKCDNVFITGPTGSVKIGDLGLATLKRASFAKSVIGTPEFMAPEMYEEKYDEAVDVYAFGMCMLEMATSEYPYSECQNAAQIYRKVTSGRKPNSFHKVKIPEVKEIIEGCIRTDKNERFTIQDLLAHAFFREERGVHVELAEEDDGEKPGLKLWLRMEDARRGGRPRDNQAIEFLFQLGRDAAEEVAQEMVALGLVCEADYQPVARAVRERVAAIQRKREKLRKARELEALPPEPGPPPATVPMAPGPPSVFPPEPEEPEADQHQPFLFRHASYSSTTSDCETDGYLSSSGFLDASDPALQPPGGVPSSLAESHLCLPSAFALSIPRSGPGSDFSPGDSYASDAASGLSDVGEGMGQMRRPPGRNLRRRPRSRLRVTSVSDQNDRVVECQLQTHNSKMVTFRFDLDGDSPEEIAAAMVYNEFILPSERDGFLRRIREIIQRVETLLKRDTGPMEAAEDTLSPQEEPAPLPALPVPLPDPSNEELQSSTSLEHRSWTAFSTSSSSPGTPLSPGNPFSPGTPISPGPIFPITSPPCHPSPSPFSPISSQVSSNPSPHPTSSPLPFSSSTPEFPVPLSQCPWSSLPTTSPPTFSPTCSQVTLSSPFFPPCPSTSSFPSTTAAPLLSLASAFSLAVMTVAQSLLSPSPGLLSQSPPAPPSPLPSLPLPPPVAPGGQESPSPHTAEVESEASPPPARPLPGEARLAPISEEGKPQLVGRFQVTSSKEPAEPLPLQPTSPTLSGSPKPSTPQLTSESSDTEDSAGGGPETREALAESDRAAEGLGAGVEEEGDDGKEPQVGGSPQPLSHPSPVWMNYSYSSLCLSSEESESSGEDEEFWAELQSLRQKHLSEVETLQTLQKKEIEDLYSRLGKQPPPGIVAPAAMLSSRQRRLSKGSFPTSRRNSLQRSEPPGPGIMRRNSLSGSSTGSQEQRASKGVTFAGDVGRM
Method in brief: as §1

MYLK2 = MYLK2 (Homo sapiens, UniProt Q9H1R3); conditions: MYLK2, 1 μM; read-out: % control
Chain of MYLK2 (Q9H1R3 whole entry): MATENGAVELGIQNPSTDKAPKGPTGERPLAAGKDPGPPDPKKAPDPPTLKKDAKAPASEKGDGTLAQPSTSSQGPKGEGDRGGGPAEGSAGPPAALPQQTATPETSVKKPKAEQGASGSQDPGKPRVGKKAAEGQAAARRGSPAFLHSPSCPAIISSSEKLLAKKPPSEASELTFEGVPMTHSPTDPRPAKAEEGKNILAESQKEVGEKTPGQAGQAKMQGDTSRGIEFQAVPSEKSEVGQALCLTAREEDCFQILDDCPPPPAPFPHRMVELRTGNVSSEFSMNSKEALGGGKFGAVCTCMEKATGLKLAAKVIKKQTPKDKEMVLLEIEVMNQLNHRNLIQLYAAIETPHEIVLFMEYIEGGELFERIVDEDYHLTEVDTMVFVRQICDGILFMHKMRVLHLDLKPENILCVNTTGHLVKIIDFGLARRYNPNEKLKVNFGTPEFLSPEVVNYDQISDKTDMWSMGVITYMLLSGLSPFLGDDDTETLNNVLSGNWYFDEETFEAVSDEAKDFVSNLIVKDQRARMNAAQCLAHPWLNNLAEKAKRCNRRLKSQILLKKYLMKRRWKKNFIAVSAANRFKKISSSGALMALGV
Method in brief: as §1

EPHA8 = target: T3, EPHA8 (Homo sapiens, UniProt P29322); conditions: EPHA8, 1 μM; read-out: % control
T3 sequence (P29322 28-1005): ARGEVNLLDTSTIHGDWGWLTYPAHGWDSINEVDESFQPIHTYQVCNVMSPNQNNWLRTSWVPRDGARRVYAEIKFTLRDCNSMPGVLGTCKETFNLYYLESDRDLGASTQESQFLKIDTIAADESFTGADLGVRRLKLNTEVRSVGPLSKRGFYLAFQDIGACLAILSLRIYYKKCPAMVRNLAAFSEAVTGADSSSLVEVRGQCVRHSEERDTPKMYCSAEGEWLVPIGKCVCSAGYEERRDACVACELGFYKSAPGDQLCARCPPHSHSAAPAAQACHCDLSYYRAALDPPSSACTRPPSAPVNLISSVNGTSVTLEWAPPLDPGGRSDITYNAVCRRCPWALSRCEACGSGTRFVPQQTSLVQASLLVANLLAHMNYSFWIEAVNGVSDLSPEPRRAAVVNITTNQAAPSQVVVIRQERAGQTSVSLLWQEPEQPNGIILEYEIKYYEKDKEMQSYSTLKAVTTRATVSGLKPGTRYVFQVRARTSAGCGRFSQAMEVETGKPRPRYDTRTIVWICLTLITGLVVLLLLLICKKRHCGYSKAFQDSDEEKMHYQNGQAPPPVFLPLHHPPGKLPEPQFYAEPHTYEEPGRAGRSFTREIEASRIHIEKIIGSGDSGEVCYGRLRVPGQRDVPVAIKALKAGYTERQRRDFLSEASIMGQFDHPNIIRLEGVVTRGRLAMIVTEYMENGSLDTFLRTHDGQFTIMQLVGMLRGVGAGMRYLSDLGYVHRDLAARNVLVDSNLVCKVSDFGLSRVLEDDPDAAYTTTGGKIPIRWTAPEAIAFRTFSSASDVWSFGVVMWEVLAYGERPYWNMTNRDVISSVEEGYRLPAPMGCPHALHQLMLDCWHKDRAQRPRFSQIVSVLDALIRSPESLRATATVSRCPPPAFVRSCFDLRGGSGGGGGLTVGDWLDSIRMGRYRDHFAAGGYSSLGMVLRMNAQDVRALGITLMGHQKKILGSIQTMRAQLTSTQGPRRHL
Method in brief: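 First, compounds in DMSO are added at 1 μM to each of 468 kinase assays. Next, RLU signals are normalised between positive control (0%) and DMSO (100%). Finally, kinases under 35% are flagged active.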

DAPK1 = DAPK1 (Homo sapiens, UniProt P53355); conditions: DAPK1, 1 μM; read-out: % control
Chain of DAPK1 (P53355 whole entry): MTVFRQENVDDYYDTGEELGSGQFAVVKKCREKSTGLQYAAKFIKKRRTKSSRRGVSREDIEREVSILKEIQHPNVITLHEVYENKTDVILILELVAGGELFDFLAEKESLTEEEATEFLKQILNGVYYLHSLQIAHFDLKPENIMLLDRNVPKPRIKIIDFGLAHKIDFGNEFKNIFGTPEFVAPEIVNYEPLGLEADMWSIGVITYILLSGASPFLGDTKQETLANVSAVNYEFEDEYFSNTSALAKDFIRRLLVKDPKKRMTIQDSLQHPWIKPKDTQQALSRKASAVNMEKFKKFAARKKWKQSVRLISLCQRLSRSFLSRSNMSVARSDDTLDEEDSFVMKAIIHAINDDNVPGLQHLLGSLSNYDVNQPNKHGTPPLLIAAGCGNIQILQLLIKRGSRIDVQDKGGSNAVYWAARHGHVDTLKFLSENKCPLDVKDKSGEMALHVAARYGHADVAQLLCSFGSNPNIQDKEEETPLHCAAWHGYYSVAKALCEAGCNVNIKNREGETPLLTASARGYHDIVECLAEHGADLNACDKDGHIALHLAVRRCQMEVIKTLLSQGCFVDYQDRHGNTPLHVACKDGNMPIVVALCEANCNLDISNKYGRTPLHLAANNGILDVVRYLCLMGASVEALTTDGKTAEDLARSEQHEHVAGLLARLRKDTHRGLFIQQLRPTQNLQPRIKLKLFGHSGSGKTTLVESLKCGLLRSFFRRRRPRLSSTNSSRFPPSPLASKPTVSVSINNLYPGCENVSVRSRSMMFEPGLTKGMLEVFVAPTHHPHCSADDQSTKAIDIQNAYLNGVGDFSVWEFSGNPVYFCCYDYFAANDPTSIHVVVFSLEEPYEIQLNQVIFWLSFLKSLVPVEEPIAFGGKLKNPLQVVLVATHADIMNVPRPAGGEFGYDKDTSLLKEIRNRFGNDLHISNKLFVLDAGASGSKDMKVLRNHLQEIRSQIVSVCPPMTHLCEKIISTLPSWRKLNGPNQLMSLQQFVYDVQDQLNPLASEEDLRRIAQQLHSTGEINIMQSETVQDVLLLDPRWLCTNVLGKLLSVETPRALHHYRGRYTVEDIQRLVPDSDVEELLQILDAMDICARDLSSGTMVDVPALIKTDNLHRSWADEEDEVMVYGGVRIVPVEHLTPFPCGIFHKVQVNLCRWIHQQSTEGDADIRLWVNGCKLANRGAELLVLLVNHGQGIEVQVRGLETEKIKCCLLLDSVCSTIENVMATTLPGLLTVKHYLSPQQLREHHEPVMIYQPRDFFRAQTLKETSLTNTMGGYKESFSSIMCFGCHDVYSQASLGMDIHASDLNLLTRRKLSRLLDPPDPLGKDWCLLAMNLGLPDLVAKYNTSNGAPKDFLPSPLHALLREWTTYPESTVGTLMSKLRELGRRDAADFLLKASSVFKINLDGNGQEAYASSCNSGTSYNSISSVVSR
Method in brief: as §1

ROS1 = ROS1 (Homo sapiens, UniProt P08922); conditions: ROS1, 1 μM; read-out: % control
Method in brief: as §1

T1 sequence (P57059 whole entry): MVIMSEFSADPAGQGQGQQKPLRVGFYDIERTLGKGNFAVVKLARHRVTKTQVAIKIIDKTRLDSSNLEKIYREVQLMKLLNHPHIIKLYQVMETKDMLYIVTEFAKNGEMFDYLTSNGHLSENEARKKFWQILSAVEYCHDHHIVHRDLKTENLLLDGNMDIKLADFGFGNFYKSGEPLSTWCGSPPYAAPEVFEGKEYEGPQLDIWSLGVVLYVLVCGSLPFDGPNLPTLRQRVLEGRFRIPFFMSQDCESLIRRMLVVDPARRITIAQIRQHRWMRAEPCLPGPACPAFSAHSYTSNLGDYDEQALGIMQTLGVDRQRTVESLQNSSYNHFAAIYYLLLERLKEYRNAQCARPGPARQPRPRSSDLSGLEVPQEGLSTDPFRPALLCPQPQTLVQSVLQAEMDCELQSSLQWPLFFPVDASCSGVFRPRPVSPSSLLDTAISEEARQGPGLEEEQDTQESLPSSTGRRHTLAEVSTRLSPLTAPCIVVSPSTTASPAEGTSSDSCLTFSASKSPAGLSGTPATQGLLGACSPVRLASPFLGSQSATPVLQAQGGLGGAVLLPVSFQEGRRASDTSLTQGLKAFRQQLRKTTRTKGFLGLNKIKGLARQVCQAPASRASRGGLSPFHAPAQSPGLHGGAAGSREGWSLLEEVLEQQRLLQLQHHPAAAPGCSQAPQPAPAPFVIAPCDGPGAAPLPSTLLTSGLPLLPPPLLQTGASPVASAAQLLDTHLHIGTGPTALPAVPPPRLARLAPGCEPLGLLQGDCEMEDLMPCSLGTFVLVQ

| SMILES | remaining binding at 1 µM (SIK) [%] | remaining binding at 1 µM (YANK3) [%] | remaining binding at 1 µM (BMX) [%] | remaining binding at 1 µM (WNK4) [%] | remaining binding at 1 µM (MYLK2) [%] | remaining binding at 1 µM (EPHA8) [%] | remaining binding at 1 µM (DAPK1) [%] | remaining binding at 1 µM (ROS1) [%] |
| --- | --- | --- | --- | --- | --- | --- | --- | --- |
| CNc1c(-c2cnn([C@H]3CCN(C(C)=O)C[C@@H]3F)c2)cnc2[nH]cc(Cl)c12 [Compound 77, 1-((3S,4S)-4-(4-(3-chloro-4-(methylamino)-1H-pyrrolo[2,3-b]pyridin-5-yl)-1H-pyrazol-1-yl)-3-fluoropiperidin-1-yl)ethan-1-one] | 94 | 97 | 88 | 77 | 79 | 94 | 73 | 74 |
| CNc1c(-c2ccc(C(=O)N3CCC(N4CCOCC4)CC3)cc2)cnc2[nH]cc(Cl)c12 [Compound 96, (4-(3-chloro-4-(methylamino)-1H-pyrrolo[2,3-b]pyridin-5-yl)phenyl)(4-morpholinopiperidin-1-yl)methanone] | 87 | 99 | 93 | 84 | 51 | 96 | 74 | 89 |
| O=C(c1ccc(-c2cnc3[nH]cc(Cl)c3c2NC2CCCC2)cc1)N1CCC(N2CCOCC2)CC1 [Compound 101, (4-(3-chloro-4-(cyclopentylamino)-1H-pyrrolo[2,3-b]pyridin-5-yl)phenyl)(4-morpholinopiperidin-1-yl)methanone] | 100 | 57 | 34 | 100 | 94 | 93 | 80 | 73 |
